Values after ≈ are worked out from the molar mass of the structure shown. Where a SMILES comes first, the peptide text is derived from it. Bridges are numbered along the chain shown (N, C = ends).
Key:
[1] = test system: Micrococcus luteus; test: Antimicrobial activity against Micrococcus luteus after 24 hrs by microdilution technique in absence of NaCl; format: functional
[2] = test system: Staphylococcus aureus; test: Antimicrobial activity against Staphylococcus aureus after 24 hrs by microdilution technique in absence of NaCl; format: functional
[3] = test system: Pseudomonas aeruginosa; test: Antimicrobial activity against Pseudomonas aeruginosa after 24 hrs by microdilution technique in absence of NaCl; format: functional
[4] = test system: Erythrocyte; test: Hemolytic activity in human red blood cells after 1 hrs; format: functional
[5] = test system: Pseudomonas aeruginosa; test: Antimicrobial activity against Pseudomonas aeruginosa after 24 hrs by microdilution technique in high salt condition; format: functional
[6] = test system: Escherichia coli; test: Antimicrobial activity against Escherichia coli after 24 hrs by microdilution technique in absence of NaCl; format: functional
[7] = test system: Candida albicans; test: Antimicrobial activity against Candida albicans after 24 hrs by microdilution technique in absence of NaCl; format: functional
[8] = test system: Micrococcus luteus; test: Antimicrobial activity against Micrococcus luteus after 24 hrs by microdilution technique in high salt condition; format: functional
[9] = test system: Staphylococcus aureus; test: Antimicrobial activity against Staphylococcus aureus after 24 hrs by microdilution technique in high salt condition; format: functional
[10] = test system: Escherichia coli; test: Antimicrobial activity against Escherichia coli after 24 hrs by microdilution technique in high salt condition; format: functional
[11] = test system: Candida albicans; test: Antimicrobial activity against Candida albicans after 24 hrs by microdilution technique in high salt condition; format: functional
[12] = Effect on leakage from large unilamellar vesicles containing phosphatidylglycerol/phosphatidyl choline assessed as release of entrapped dye at 50 uM; format: physicochemical

SMILES	MIC [1] [µg/mL]	MIC [2] [µg/mL]	MIC [3] [µg/mL]	MIC [5] [µg/mL]	MIC [6] [µg/mL]	MIC [7] [µg/mL]	MIC [8] [µg/mL]	MIC [9] [µg/mL]	MIC [10] [µg/mL]	MIC [11] [µg/mL]	Activity [12] [%]	HC50 [4] [µg/mL]
CC(C)C[C@H](NC(=O)[C@@H]1CSSC[C@H](NC(=O)[C@H](C)NC(=O)[C@H](C)NC(=O)[C@@H](N)CC(=O)O)C(=O)N[C@@H](C)C(=O)N[C@@H](C)C(=O)N[C@@H](Cc2cnc[nH]2)C(=O)N1)C(=O)N[C@@H](Cc1c[nH]c2ccccc12)C(=O)N[C@@H](CCCNC(=N)N)C(N)=O (H-DAACAAHCLWR-NH2; disulfide 4-8)	> 200	> 200	> 200	> 200	> 200	–	> 200	> 200	> 200	> 200	–	>200
CC(C)C[C@H](NC(=O)[C@@H]1CSSC[C@H](NC(=O)[C@H](C)NC(=O)[C@H](C)NC(=O)[C@@H](N)CC(=O)O)C(=O)N[C@@H](C)C(=O)N[C@@H](C)C(=O)N[C@@H](CCCCN)C(=O)N1)C(=O)N[C@@H](Cc1c[nH]c2ccccc12)C(=O)N[C@@H](CCCNC(=N)N)C(N)=O (H-DAACAAKCLWR-NH2; disulfide 4-8)	> 200	> 200	> 200	> 200	> 200	–	> 200	> 200	> 200	> 200	–	>200
CC(C)C[C@H](NC(=O)[C@@H]1CSSC[C@H](NC(=O)[C@H](C)NC(=O)[C@H](C)NC(=O)[C@@H](N)CCCCN)C(=O)N[C@@H](C)C(=O)N[C@@H](C)C(=O)N[C@@H](Cc2cnc[nH]2)C(=O)N1)C(=O)N[C@@H](Cc1c[nH]c2ccccc12)C(=O)N[C@@H](CCCNC(=N)N)C(N)=O (H-KAACAAHCLWR-NH2; disulfide 4-8)	100	100	> 200	> 200	> 200	–	100	100	> 200	> 200	20	>200
CC(C)C[C@H](NC(=O)[C@@H]1CSSC[C@H](NC(=O)[C@H](C)NC(=O)[C@H](C)NC(=O)[C@@H](N)CCCCN)C(=O)N[C@@H](C)C(=O)N[C@@H](C)C(=O)N[C@@H](CCCCN)C(=O)N1)C(=O)N[C@@H](Cc1c[nH]c2ccccc12)C(=O)N[C@@H](CCCNC(=N)N)C(N)=O (H-KAACAAKCLWR-NH2; disulfide 4-8)	50 (≈ 41.1 µM)	50 (≈ 41.1 µM)	> 200	> 200	50 (≈ 41.1 µM)	–	200	> 200	200	> 200	–	>200

Continued, in another order:

MIC [1] [µg/mL]	MIC [2] [µg/mL]	MIC [3] [µg/mL]	MIC [5] [µg/mL]	MIC [6] [µg/mL]	MIC [7] [µg/mL]	MIC [8] [µg/mL]	MIC [9] [µg/mL]	MIC [10] [µg/mL]	MIC [11] [µg/mL]	Activity [12] [%]	SMILES	HC50 [4] [µg/mL]
> 200	> 200	> 200	> 200	> 200	> 200	> 200	> 200	> 200	> 200	–	CC(C)C[C@H](NC(=O)[C@H](CS)NC(=O)[C@H](Cc1cnc[nH]1)NC(=O)[C@H](C)NC(=O)[C@H](C)NC(=O)[C@H](CS)NC(=O)[C@H](C)NC(=O)[C@H](C)NC(=O)[C@@H](N)CC(=O)O)C(=O)N[C@@H](Cc1c[nH]c2ccccc12)C(=O)N[C@@H](CCCNC(=N)N)C(N)=O (H-DAACAAHCLWR-NH2)	>200
200 (≈ 166 µM)	200 (≈ 166 µM)	> 200	> 200	200 (≈ 166 µM)	–	> 200	> 200	> 200	> 200	–	CC(C)C[C@H](NC(=O)[C@H](CS)NC(=O)[C@H](CCCCN)NC(=O)[C@H](C)NC(=O)[C@H](C)NC(=O)[C@H](CS)NC(=O)[C@H](C)NC(=O)[C@H](C)NC(=O)[C@@H](N)CC(=O)O)C(=O)N[C@@H](Cc1c[nH]c2ccccc12)C(=O)N[C@@H](CCCNC(=N)N)C(N)=O (H-DAACAAKCLWR-NH2)	>200
–	–	–	–	–	–	–	–	–	–	70	CC(C)C[C@H](NC(=O)[C@H](CS)NC(=O)[C@H](Cc1cnc[nH]1)NC(=O)[C@H](C)NC(=O)[C@H](C)NC(=O)[C@H](CS)NC(=O)[C@H](C)NC(=O)[C@H](C)NC(=O)[C@@H](N)CCCCN)C(=O)N[C@@H](Cc1c[nH]c2ccccc12)C(=O)N[C@@H](CCCNC(=N)N)C(N)=O (H-KAACAAHCLWR-NH2) [listing 1 of 2 here]	–
25	50	100	> 200	50	–	> 200	> 200	> 200	> 200	–	CC(C)C[C@H](NC(=O)[C@H](CS)NC(=O)[C@H](Cc1cnc[nH]1)NC(=O)[C@H](C)NC(=O)[C@H](C)NC(=O)[C@H](CS)NC(=O)[C@H](C)NC(=O)[C@H](C)NC(=O)[C@@H](N)CCCCN)C(=O)N[C@@H](Cc1c[nH]c2ccccc12)C(=O)N[C@@H](CCCNC(=N)N)C(N)=O (H-KAACAAHCLWR-NH2) [listing 2 of 2 here]	>200
25 (≈ 20.5 µM)	50 (≈ 41 µM)	100 (≈ 82 µM)	> 200	50 (≈ 41 µM)	–	200	100	> 200	> 200	–	CC(C)C[C@H](NC(=O)[C@H](CS)NC(=O)[C@H](CCCCN)NC(=O)[C@H](C)NC(=O)[C@H](C)NC(=O)[C@H](CS)NC(=O)[C@H](C)NC(=O)[C@H](C)NC(=O)[C@@H](N)CCCCN)C(=O)N[C@@H](Cc1c[nH]c2ccccc12)C(=O)N[C@@H](CCCNC(=N)N)C(N)=O (H-KAACAAKCLWR-NH2)	>200

Source: ChEMBL document CHEMBL1157136, “Design and synthesis of cyclic disulfide-bonded antibacterial peptides on the basis of the alpha helical domain of Tenecin 1, an insect defensin” (Bioorg Med Chem, 2008)
